Experiments:
[1] = system: mouse myoblast cell line (C2C12 cells); experiment: Myotube thickness in dexamethasone-treated mouse myoblasts (Giemsa-Wright staining, ImageJ); format: cell-based; conditions: 100 μM, vs dexamethasone alone; for increase in thickness of myotubes reduced by dexamethasone: co-treated with 50 μM dexamethasone for two days from day 4 of differentiation, quantified using ImageJ
Method: A mouse myoblast cell line (C2C12 cells) was purchased from ATCC (Manassas, Va., USA), and the purchased cells were incubated in a 5% CO2 incubator at 37° C. using 10% fetal bovine serum media (Gibco-BRL). When the confluency of the incubated cells became 80%, the myoblasts were allowed to differentiate into myotubes using 2% horse serum media (Gibco-BRL). The mouse myoblasts incubated in Preparation Example 1 were co-treated with 50 dexamethasone (dexa; Sigma) and 100 μM of sesquiterpene derivatives (experimental materials) for two days from day 4 of differentiation of the mouse myoblasts. An experiment was conducted in the same manner as in Example 1, except for treatment with 50 μM of dexamethasone (dexa; Sigma) instead of the sesquiterpene derivatives (experimental materials). […] When the fixing was completed, the myotubes were naturally dried at room temperature for 10 minutes, and then a Giemsa-Wright staining solution (Asan Pharmaceutical, Seoul), which specifically stains myotubes, was dropped onto the myotubes and left for 30 minutes to stain the myotubes. […] Six sections were randomly selected from each well and micrographed, and the thickness of at least […] myotubes from each well was analyzed (three repetitions/group).

p-4E-BP1 protein = experiment: Western blotting of p-4E-BP1 in dexamethasone-treated mouse myoblasts; format: cell-based; conditions: 100 μM, co-treated with dexamethasone; FIG. 3A
Method: (§10) The mouse myoblasts incubated in Preparation Example 1 were co-treated with 50 dexamethasone (dexa; Sigma) and 100 μM of sesquiterpene derivatives (experimental materials) for two days from day 4 of differentiation of the mouse myoblasts. An experiment was conducted in the same manner as in Example 1, except for treatment with 50 μM of dexamethasone (dexa; Sigma) instead of the sesquiterpene derivatives (experimental materials). To perform western blotting on cells, a lysis buffer containing 500 μL of 100 mM Tris-HCl, pH 7.4, 5 mM EDTA, 50 mM sodium pyrophosphate, 50 mM NaF, 100 mM orthovanadate, 1% Triton X-100, 1 mM phenylmethanesulfonyl fluoride, 2 μg/mL of aprotinin, 1 μg/mL of pepstatin A, and 1 μg/mL of leupeptin was added to each well from which media were removed, the cells were harvested, and then centrifuged at 1,300×g and 4° C. for 20 minutes, and then the middle layer was taken, and the concentrations of proteins were quantified by the Bradford method (Bio-Rad). 40 μg of the quantified proteins were electrophoresed by SDS-polyacrylamide gel, and then the separated proteins were transferred to nitrocellulose membranes (Amersham, Buckinghamshire, UK). […] Bands visualized on the X-ray film were scanned and quantified using Quantity One analysis software (Bio-Rad).

p-p70S6K1 protein = experiment: Western blotting of p-p70S6K1 in dexamethasone-treated mouse myoblasts; format: cell-based; conditions: 100 μM, co-treated with dexamethasone; FIG. 3A
Method: as §10

MuRF1 = experiment: RT-PCR of MuRF1 gene expression in dexamethasone-treated mouse myoblasts; format: cell-based; conditions: 100 μM, co-treated with dexamethasone; FIG. 3B
Method: (§1) A mouse myoblast cell line (C2C12 cells) was purchased from ATCC (Manassas, Va., USA), and the purchased cells were incubated in a 5% CO2 incubator at 37° C. using 10% fetal bovine serum media (Gibco-BRL). When the confluency of the incubated cells became 80%, the myoblasts were allowed to differentiate into myotubes using 2% horse serum media (Gibco-BRL).
(§2) The mouse myoblasts incubated in Preparation Example 1 were co-treated with 50 dexamethasone (dexa; Sigma) and 100 μM of sesquiterpene derivatives (experimental materials) for two days from day 4 of differentiation of the mouse myoblasts.
(§3) An experiment was conducted in the same manner as in Example 1, except for treatment with 50 μM of dexamethasone (dexa; Sigma) instead of the sesquiterpene derivatives (experimental materials).
(§4) 334 μl of a TRIzol solution per 1×10^7 mouse myoblasts of Example 1 was added and replaced, followed by centrifugation at 12,000×g and 4° C. for 10 minutes. The supernatant was transferred to a new tube and then 67 μl of chloroform was added thereto, followed by vortexing. […] The concentration of the extracted RNA samples was measured at wavelengths of 260 nm and 280 nm using a UV/VIS spectrometer (Beckman Coulter, DU730), and was subjected to agarose gel electrophoresis to confirm the integrity of RNA samples. […]

MaFbx/atrogin1 = experiment: RT-PCR of MaFbx/atrogin1 gene expression in dexamethasone-treated mouse myoblasts; format: cell-based; conditions: 100 μM, co-treated with dexamethasone; FIG. 3B
Method: as §1, §2, §3, §4

C57BL/6N mice [2] = experiment: Grip strength test; format: in vivo, mouse; conditions: 200 mpk orally once a day, week 12 of breeding
From the text: (§5) 32 5-week-old male C57BL/6N mice (Orient, Korea) were adapted to a laboratory environment for one week with a commercial normal diet (rodent chow), and then randomly divided into four groups (chow vehicle group, chow α-cedrene group, HFD vehicle group, and HFD α-cedrene group) according to a randomized block design and bred for a total of 10 weeks.
(§6) While mice bred in Preparation Example 2 were fed a normal diet for 10 weeks, 200 mpk α-cedrene was orally administered to the mice once a day.
A procedure was carried out in the same manner as in Example 2, except that the mice were fed a high-fat experimental diet (HFD: 40% high fat energy, 17 g lard+3% corn oil/100 g diet). […]
The grip strength of the mice of Examples 2 and 3 and Comparative Examples 2 and 3 was measured at week 12 of breeding using a grip strength meter for mice (DJ2-248, Daejong Instrument Industry Co., Ltd., Korea). In particular, a force (N) for mice to hold onto a wire mesh was measured while mounting the four feet of mice on a wire mesh to which a gauge was attached, and pulling the tails of the mice backward. The measurement was successively performed five times, and the maximum value was determined as grip strength. To normalize the experimental results, grip strength (N) divided by body weight […] was calculated.

C57BL/6N mice [3] = experiment: Four limb hanging test; format: in vivo, mouse; conditions: 200 mpk orally once a day; for hanging time: FIG. 5A; for hanging time multiplied by body weight: FIG. 5B
From the text: as §5, §6
(§7) A procedure was carried out in the same manner as in Example 2, except that the mice were fed a high-fat experimental diet (HFD: 40% high fat energy, 17 g lard+3% corn oil/100 g diet).
(§8) A procedure was carried out in the same manner as in Example 2, except that a vehicle was orally administered instead of 200 mpk α-cedrene, while a commercial normal diet (rodent chow) was ingested.
(§9) A procedure was carried out in the same manner as in Comparative Example 2, except that a high-fat diet (HFD: 40% high fat energy) was ingested.
To measure the limb muscle strength of mice, the time that the mice of Examples 2 and 3 and Comparative Examples 2 and 3 hung upside down using their four feet was measured at week 12 of breeding. The time (seconds) that the mice hung upside down in a cage equipped with a wire mesh cover (diameter <0.5 cm) (20×30×50 cm, Jeung-Do Bio & Plant Co., Ltd, Korea) was measured a total of three times, and a rest period of 30 minutes or longer was given between measurements. Experimental results were obtained by multiplying hanging time (sec) by body weight (kg).

mouse gastrocnemius = experiment: H&E staining of muscle tissue, fiber diameter; format: in vivo; conditions: 200 mpk orally once a day, vs vehicle
From the text: as §5, §6, §7, §8, §9
Muscle tissues of mice were extracted, fixed in 10% formalin, and then stained with hematoxylin and eosin (H&E) after requesting Korea CFC (Gyeonggi-do, Korea) to do so, and observed using an optical microscope (IX71, Olympus, JPN) and photographed using a digital camera (DP71, Olympus, JPN).

[4] = high-fat diet, vs HFD vehicle group
[5] = normal diet, vs chow vehicle group

CC(=O)C1=C(C)[C@@H]2C[C@@]3(C1)[C@H](C)CC[C@H]3C2(C)C [methyl cedryl ketone]
increase in thickness of myotubes reduced by dexamethasone [1]: 32%

C[C@@H]1CC[C@H]2C(C)(C)[C@H]3C[C@@]12CC[C@@]3(C)O [cedrol]
increase in thickness of myotubes reduced by dexamethasone [1]: 40%

CC1=CC[C@@]23C[C@@H]1C(C)(C)C2CC[C@H]3C (stereo partly drawn) [cedrene, α-cedrene]
increase in thickness of myotubes reduced by dexamethasone [1]: 58% | thickness of myotubes reduced by dexamethasone (visually confirmed, FIG. 1A) ([1]; co-treated with dexamethasone): increased | amount of p-4E-BP1 protein reduced by dexamethasone (p-4E-BP1 protein): significantly increased | amount of p-p70S6K protein reduced by dexamethasone (p-p70S6K1 protein): significantly increased | expression of MuRF1 (MuRF1): significantly reduced | expression of MaFbx/atrogin1 (MaFbx/atrogin1): significantly reduced | increase in grip strength (C57BL/6N mice [2]; [4]): 31% | increase in grip strength (C57BL/6N mice [2]; [5]): 26% | hanging time (C57BL/6N mice [3]; [4]): significantly increased | hanging time multiplied by body weight (C57BL/6N mice [3]; [4]): significantly increased | hanging time (C57BL/6N mice [3]; [5]): significantly increased | hanging time multiplied by body weight (C57BL/6N mice [3]; [5]): significantly increased | increase in fiber diameter of the mouse gastrocnemius (mouse gastrocnemius; CHOW group): 21% | increase in fiber diameter of the mouse gastrocnemius (mouse gastrocnemius; HFD group): 27%

CC(=O)O[C@]1(C)CC[C@@]23C[C@@H]1C(C)(C)[C@@H]2CC[C@H]3C [cedryl acetate]
increase in thickness of myotubes reduced by dexamethasone [1]: 51%

C[C@@H]1CC[C@H]2C(C)(C)[C@H]3C[C@@]12CC1OC13C (some centres unmarked) [cedrene epoxide]
increase in thickness of myotubes reduced by dexamethasone [1]: 38%

CC1=CCC23CC1C(C)(CO)C2CCC3C (centres unmarked) [cedrenol]
increase in thickness of myotubes reduced by dexamethasone [1]: 43%

C=C1CC[C@@]23C[C@@H]1C(C)(C)C2CC[C@H]3C (stereo partly drawn) [β-cedrene]
increase in thickness of myotubes reduced by dexamethasone [1]: 36%

Reference: patent US20210369640A1, “COMPOSITION CONTAINING SESQUITERPENE DERIVATIVE AS ACTIVE INGREDIENT FOR PREVENTION OR TREATMENT OF MUSCLE DISEASES” (INDUSTRY-ACADEMIC COOPERATION FOUNDATION, YONSEI UNIVERSITY, priority 2017, published 2021)
